Experimental data published in ChEMBL document CHEMBL1201862, “PubChem BioAssay data set” (2004).
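A five-concentration, 48-hour dose response in 96-well plates underlies each endpoint, interpolated linearly between surrounding concentrations. At the GI50, growth is halved.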 Activity calls are given as the source filed them. Cut-off read from the data, not from the text of the source: active = GI50 up to about 1.1 µM and inactive = higher.

How the values were obtained:
Test in all cases: NCI anticancer screen, dose series, 48 h
A498 = test system: A498
IGROV-1 = test system: IGROV-1
KM12 = test system: KM12
DU-145 = test system: DU-145
HT-29 = test system: HT-29
Malme-3M = test system: Malme-3M
U-251 = test system: U-251
SW-620 = test system: SW-620
RXF 393 = test system: RXF 393
SK-MEL-5 = test system: SK-MEL-5
CAKI-1 = test system: CAKI-1
TK-10 = test system: TK-10
SF-268 = test system: SF-268
NCI-H23 = test system: NCI-H23
SF-295 = test system: SF-295
OVCAR-5 = test system: OVCAR-5
SK-MEL-2 = test system: SK-MEL-2
RPMI-8226 = test system: RPMI-8226
NCI-H460 = test system: NCI-H460
HOP-92 = test system: HOP-92

Measured: GI50

CCOC(=O)c1c(NS(=O)(=O)c2ccc(Br)cc2)sc2c1CCCC2
inactive: A498 9.4 µM | IGROV-1 4.21 µM | KM12 6.65 µM | DU-145 8 µM | HT-29 5.3 µM | Malme-3M 12.9 µM | U-251 12.4 µM | SW-620 16.5 µM | RXF 393 2.67 µM | SK-MEL-5 7.29 µM | CAKI-1 10.2 µM | TK-10 10.8 µM | SF-268 3.72 µM | NCI-H23 6.34 µM | SF-295 3.92 µM | OVCAR-5 6.71 µM | SK-MEL-2 5.85 µM | RPMI-8226 4.6 µM | NCI-H460 6.4 µM

COc1ccc(Nc2nc3ccccc3nc2-c2cccs2)cc1OC
inactive: IGROV-1 > 10 µM | KM12 > 10 µM | DU-145 > 10 µM | HT-29 > 10 µM | U-251 > 10 µM | SW-620 > 10 µM | RXF 393 > 10 µM | SK-MEL-5 > 10 µM | CAKI-1 > 10 µM | TK-10 > 10 µM | SF-268 > 10 µM | NCI-H23 > 10 µM | SF-295 > 10 µM | HOP-92 > 10 µM | OVCAR-5 > 10 µM | SK-MEL-2 > 10 µM | RPMI-8226 > 10 µM | NCI-H460 > 10 µM

S=C(Nc1ccc(Cl)cc1)SC1CCCCC1
inactive: IGROV-1 21.2 µM | KM12 28 µM | DU-145 40.9 µM | HT-29 20.8 µM | Malme-3M 28.4 µM | U-251 32.4 µM | SW-620 32.9 µM | RXF 393 25.1 µM | SK-MEL-5 16.7 µM | CAKI-1 15 µM | TK-10 40.6 µM | SF-268 27 µM | NCI-H23 20.5 µM | SF-295 19.1 µM | HOP-92 23.5 µM | OVCAR-5 17.5 µM | SK-MEL-2 17.6 µM | RPMI-8226 40.1 µM | NCI-H460 28.4 µM

Cc1cc(OCc2nnc3n2N=C(c2cc(F)c(Cl)cc2Cl)/C(=C/c2ccc(-c4ccc(Cl)cc4)o2)S3)ccc1Cl
inactive: A498 24.7 µM | IGROV-1 12.1 µM | KM12 41.5 µM | DU-145 > 50 µM | HT-29 21.3 µM | Malme-3M 3.9 µM | U-251 > 50 µM | SW-620 32.9 µM | RXF 393 > 50 µM | SK-MEL-5 46.5 µM | CAKI-1 39.5 µM | TK-10 41.2 µM | SF-268 > 50 µM | NCI-H23 26.7 µM | SF-295 36.6 µM | OVCAR-5 > 50 µM | SK-MEL-2 > 50 µM | RPMI-8226 14.1 µM | NCI-H460 29.5 µM

Cc1cc(S(=O)(=O)Nc2nc(N)nc(N3N=CCC3C)n2)c(SCC(=O)O)cc1Cl (stereo not given)
inactive: A498 > 10 µM | IGROV-1 > 10 µM | KM12 > 10 µM | DU-145 > 10 µM | HT-29 > 10 µM | Malme-3M > 10 µM | U-251 > 10 µM | SW-620 > 10 µM | RXF 393 > 10 µM | SK-MEL-5 > 10 µM | CAKI-1 > 10 µM | TK-10 > 10 µM | SF-268 > 10 µM | NCI-H23 > 10 µM | SF-295 > 10 µM | OVCAR-5 > 10 µM | SK-MEL-2 > 10 µM | RPMI-8226 > 10 µM | NCI-H460 > 10 µM

COc1cc2c(c(O)c1OC)C(=O)[C@@H]1CCC(=O)N1C2c1ccccc1 (stereo not given in full)
inactive: A498 > 100 µM | IGROV-1 > 100 µM | KM12 67.5 µM | DU-145 > 100 µM | HT-29 87.7 µM | Malme-3M > 100 µM | U-251 63.1 µM | SW-620 > 100 µM | SK-MEL-5 > 10 µM | CAKI-1 > 100 µM | TK-10 > 100 µM | SF-268 > 100 µM | NCI-H23 > 100 µM | SF-295 > 100 µM | OVCAR-5 > 100 µM | SK-MEL-2 > 100 µM | RPMI-8226 45.7 µM | NCI-H460 > 100 µM

O=S1(=O)c2ccccc2N2CCCc3cc(Cl)cc1c32
inactive: A498 > 100 µM | IGROV-1 > 100 µM | KM12 > 100 µM | DU-145 > 100 µM | HT-29 > 100 µM | Malme-3M 70.6 µM | SW-620 > 100 µM | RXF 393 25.2 µM | SK-MEL-5 > 100 µM | CAKI-1 61.2 µM | TK-10 > 10 µM | SF-268 34.4 µM | SF-295 29.3 µM | OVCAR-5 > 100 µM | SK-MEL-2 44.2 µM | NCI-H460 > 100 µM

COc1ccc(-c2cc(-c3ccc(C)cc3)n(C3OC(COC(C)=O)C(OC(C)=O)C(OC(C)=O)C3OC(C)=O)c(=S)c2C#N)cc1 (stereo not given)
inactive: IGROV-1 > 100 µM | KM12 > 100 µM | DU-145 > 100 µM | HT-29 > 100 µM | Malme-3M > 100 µM | U-251 50.1 µM | SW-620 > 100 µM | RXF 393 79.4 µM | SK-MEL-5 > 100 µM | CAKI-1 > 100 µM | TK-10 > 100 µM | SF-268 > 100 µM | NCI-H23 > 100 µM | SF-295 > 100 µM | HOP-92 > 100 µM | OVCAR-5 > 100 µM | RPMI-8226 > 100 µM | NCI-H460 > 100 µM

CCOC(=O)c1c(-c2ccccc2)[nH]c2ccc(Cl)cc2c1=O
inactive: IGROV-1 29.6 µM | KM12 34.8 µM | DU-145 56 µM | HT-29 27.9 µM | Malme-3M 61.8 µM | U-251 41.6 µM | SW-620 > 100 µM | RXF 393 35 µM | SK-MEL-5 29.8 µM | CAKI-1 37.9 µM | TK-10 42.8 µM | SF-268 50.1 µM | NCI-H23 41.1 µM | SF-295 47.8 µM | HOP-92 22 µM | OVCAR-5 > 100 µM | SK-MEL-2 34 µM | RPMI-8226 36.9 µM | NCI-H460 30.3 µM

C=CC(=C)CCC(Br)C(C)(C)Cl (stereo not given)
inactive: IGROV-1 > 100 µM | KM12 > 100 µM | DU-145 > 100 µM | HT-29 > 100 µM | Malme-3M > 100 µM | U-251 > 100 µM | SW-620 > 100 µM | RXF 393 > 100 µM | SK-MEL-5 > 100 µM | TK-10 > 100 µM | SF-268 > 100 µM | NCI-H23 > 100 µM | SF-295 > 100 µM | HOP-92 > 100 µM | OVCAR-5 > 100 µM | SK-MEL-2 > 100 µM | RPMI-8226 > 100 µM | NCI-H460 > 100 µM

Cc1nn(C(=O)c2ccc(Cl)cc2)c2c1C(/C=C/c1ccccc1)SC(=N)N2 (stereo not given)
inactive: IGROV-1 > 10 µM | KM12 > 10 µM | DU-145 > 10 µM | HT-29 > 10 µM | Malme-3M > 10 µM | U-251 > 10 µM | SW-620 > 10 µM | RXF 393 > 10 µM | SK-MEL-5 > 10 µM | CAKI-1 > 10 µM | TK-10 > 10 µM | SF-268 > 10 µM | NCI-H23 > 10 µM | SF-295 > 10 µM | HOP-92 > 10 µM | OVCAR-5 > 10 µM | SK-MEL-2 > 10 µM | RPMI-8226 > 10 µM | NCI-H460 > 10 µM

CCN1CC(C)Cn2c(=O)[nH]c3cc(Br)cc1c32 (stereo not given)
inactive: A498 16.9 µM | IGROV-1 18.5 µM | KM12 22.9 µM | DU-145 48.8 µM | HT-29 33.5 µM | Malme-3M 64.4 µM | U-251 24 µM | SW-620 5.01 µM | RXF 393 6.9 µM | SK-MEL-5 19.1 µM | CAKI-1 13.9 µM | TK-10 25 µM | SF-268 10.9 µM | NCI-H23 36.8 µM | SF-295 21.1 µM | OVCAR-5 70.5 µM | SK-MEL-2 23.9 µM | RPMI-8226 1.79 µM | NCI-H460 30.6 µM

Nc1ncnc2c1cnn2Cc1cn(COCC(O)CO)nn1 (stereo not given)
inactive: A498 > 100 µM | IGROV-1 > 100 µM | KM12 > 100 µM | DU-145 > 100 µM | HT-29 > 100 µM | U-251 > 100 µM | SW-620 > 100 µM | SK-MEL-5 > 100 µM | CAKI-1 > 100 µM | TK-10 > 100 µM | SF-268 18.1 µM | NCI-H23 > 100 µM | SF-295 > 100 µM | HOP-92 > 100 µM | OVCAR-5 > 100 µM | SK-MEL-2 > 100 µM

CC1CCc2sc3nc(S)n(-c4ccccc4)c(=O)c3c2C1 (stereo not given)
inactive: IGROV-1 47.4 µM | KM12 75.2 µM | DU-145 63.4 µM | HT-29 39.6 µM | Malme-3M 66.8 µM | U-251 49.2 µM | SW-620 > 100 µM | RXF 393 35.8 µM | SK-MEL-5 44.1 µM | CAKI-1 > 100 µM | TK-10 57.8 µM | SF-268 85.7 µM | NCI-H23 92.7 µM | SF-295 27.7 µM | HOP-92 37.7 µM | OVCAR-5 86.9 µM | SK-MEL-2 27.7 µM | RPMI-8226 53 µM | NCI-H460 34.4 µM

c1ccc(-n2nc3ccc4nonc4c3n2)cc1
inactive: IGROV-1 > 100 µM | KM12 > 100 µM | DU-145 > 100 µM | HT-29 > 100 µM | Malme-3M > 100 µM | U-251 > 100 µM | SW-620 > 100 µM | RXF 393 > 100 µM | SK-MEL-5 > 100 µM | CAKI-1 > 100 µM | TK-10 > 100 µM | SF-268 > 100 µM | NCI-H23 > 100 µM | SF-295 > 100 µM | HOP-92 > 100 µM | OVCAR-5 > 100 µM | SK-MEL-2 > 100 µM | RPMI-8226 > 100 µM | NCI-H460 > 100 µM
